# Legend:
# [1] = target: Cyclin-dependent kinase/G2/mitotic-specific cyclin- 1 (Homo sapiens, UniProt P06493); experiment: Biochemical CDK Inhibition Assay
# Protocol: (§1) nhibitory effects of the compounds of the disclosure were measured in biochemical assays that measure the enzymatic phosphorylation activity of CDK enzyme in complex of Cyclin proteins phosphorylates 7.5 micromolar fluorescently labelled peptide substrate, 5-FAM-QSPKKG-CONH2, (FL-Peptide 18, Perkin Elmer, 760362) in the presence of adenosine-5′-triphosphate (ATP) and varying concentrations of the test compound in 100 mM 2-[4-(2-hydroxyethyl)piperazin-1-yl]ethanesulfonic acid (HEPES), pH 7.5, 10 mM MgCl2, 0.015% Brij-35, 1 mM dithiothreitol (DTT), 1.0% dimethylsulfoxide (DMSO). Assays were performed at 1.0 mM ATP or at ATP Km of the CDK enzymes in complex with Cyclin proteins. Reactions proceeded until between 10% to 20% total peptides were phosphorylated at room temperature (25° C.) and were terminated with 35 mM 2,2′,2″,2′″-(ethane-1,2-diyldinitrilo)tetraacetic acid (EDTA). Product was detected using the Caliper mobility shift detection method where the phosphorylated peptide (product) and substrate were electrophoretically separated and measured. Percent activity was plotted against log concentration of compound and points to generate an apparent IC50. The following CDK enzymes in complex with different cyclin proteins were used in these assays:CDK1/Cyclin B1, GST-tag (BPS, 40454), 1.5 nM used in the assayCDK2/Cyclin E (Eurofins, 14-475), 1.25 nM used in the assays
# [2] = target: Cyclin-dependent kinase 2/G1/S-specific cyclin-E1 (Homo sapiens, UniProt P24941); experiment: Biochemical CDK Inhibition Assay
# Protocol: as §1
# Cyclin-dependent kinase/G2/mitotic-specific cyclin- 1, sequence (P06493 whole entry): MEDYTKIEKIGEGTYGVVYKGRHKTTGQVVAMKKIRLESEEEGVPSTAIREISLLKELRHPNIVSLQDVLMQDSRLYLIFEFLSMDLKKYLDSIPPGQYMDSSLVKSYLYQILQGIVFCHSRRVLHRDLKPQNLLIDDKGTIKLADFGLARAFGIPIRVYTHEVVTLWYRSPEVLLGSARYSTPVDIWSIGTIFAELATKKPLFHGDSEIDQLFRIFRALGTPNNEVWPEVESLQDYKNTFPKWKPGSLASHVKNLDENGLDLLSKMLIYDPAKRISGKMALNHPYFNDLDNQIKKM
# Cyclin-dependent kinase/G2/mitotic-specific cyclin- 1, sequence (P14635 whole entry, further chain): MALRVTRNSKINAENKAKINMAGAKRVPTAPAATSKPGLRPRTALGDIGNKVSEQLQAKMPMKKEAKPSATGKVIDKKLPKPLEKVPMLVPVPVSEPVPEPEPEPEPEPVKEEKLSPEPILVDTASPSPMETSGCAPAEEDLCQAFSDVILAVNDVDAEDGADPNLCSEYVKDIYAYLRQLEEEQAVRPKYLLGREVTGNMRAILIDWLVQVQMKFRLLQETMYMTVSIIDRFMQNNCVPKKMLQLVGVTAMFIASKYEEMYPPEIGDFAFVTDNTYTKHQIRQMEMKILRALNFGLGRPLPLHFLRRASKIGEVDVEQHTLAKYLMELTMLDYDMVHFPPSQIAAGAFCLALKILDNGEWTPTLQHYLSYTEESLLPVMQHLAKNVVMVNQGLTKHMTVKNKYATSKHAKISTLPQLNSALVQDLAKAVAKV
IC50 [1] [nM],IC50 [2] [nM],SMILES
> 500,< 10,"Cc1nccnc1Nc1cc([C@H]2CC[C@@H](OC(=O)NC3(C)CC3)C2)[nH]n1 [US20250074895, Compound 6]"
300,< 10,"Cc1nccc(Nc2cc([C@H]3CC[C@@H](OC(=O)NC4(C)CC4)C3)[nH]n2)n1 [US20250074895, Compound 34]"
> 500,25,"CC1(NC(=O)O[C@@H]2CC[C@H](c3cc(Nc4nccnn4)n[nH]3)C2)CC1 [US20250074895, Compound 42]"
< 100,< 10,"CC1(NC(=O)O[C@@H]2CC[C@H](c3cc(Nc4cc(C#N)ncn4)n[nH]3)C2)CC1 [US20250074895, Compound 16]"
300,< 10,"CC1(NC(=O)O[C@@H]2CC[C@H](c3cc(Nc4ccncn4)n[nH]3)C2)CC1 [US20250074895, Compound 39]"
< 100,< 10,"CC1(NC(=O)O[C@@H]2CC[C@H](c3cc(Nc4ccnc(C(F)(F)F)n4)n[nH]3)C2)CC1 [US20250074895, Compound 10]"
< 100,< 10,"CC1(NC(=O)O[C@@H]2CC[C@H](c3cc(Nc4cnc(F)cn4)n[nH]3)C2)CC1 [US20250074895, Compound 31]"
< 100,< 10,"CC1(NC(=O)O[C@@H]2CC[C@H](c3cc(Nc4cc(C#N)ccn4)n[nH]3)C2)CC1 [US20250074895, Compound 2]"
< 100,< 10,"CN(C)c1nncc(Nc2cc([C@H]3CC[C@@H](OC(=O)NC4(C)CC4)C3)[nH]n2)n1 [US20250074895, Compound 44]"
300,< 10,"Cc1cnc(Nc2cc([C@H]3CC[C@@H](OC(=O)NC4(C)CC4)C3)[nH]n2)cn1 [US20250074895, Compound 27]"
> 500,< 10,"CC1(NC(=O)O[C@@H]2CC[C@H](c3cc(Nc4cnc(S(C)(=O)=O)cn4)n[nH]3)C2)CC1 [US20250074895, Compound 35]"
< 100,< 10,"CC1(NC(=O)O[C@@H]2CC[C@H](c3cc(Nc4ccnc(C#N)n4)n[nH]3)C2)CC1 [US20250074895, Compound 3]"
> 500,< 10,"Cc1cc(C#N)cnc1Nc1cc([C@H]2CC[C@@H](OC(=O)NC3(C)CC3)C2)[nH]n1 [US20250074895, Compound 20]"
300,< 10,"CC1(NC(=O)O[C@@H]2CC[C@H](c3cc(Nc4cnc(OC(F)F)cn4)n[nH]3)C2)CC1 [US20250074895, Compound 8]"
< 100,< 10,"COc1nncc(Nc2cc([C@H]3CC[C@@H](OC(=O)NC4(C)CC4)C3)[nH]n2)n1 [US20250074895, Compound 54]"
> 500,< 10,"Cc1nc(CO)cnc1Nc1cc([C@H]2CC[C@@H](OC(=O)NC3(C)CC3)C2)[nH]n1 [US20250074895, Compound 47]"
> 500,15,"CC1(NC(=O)O[C@@H]2CC[C@H](c3cc(Nc4ccc(C#N)nn4)n[nH]3)C2)CC1 [US20250074895, Compound 18]"
300,< 10,"CC1(NC(=O)O[C@@H]2CC[C@H](c3cc(Nc4cc(C#N)cnn4)n[nH]3)C2)CC1 [US20250074895, Compound 5]"
300,< 10,"COc1cncc(Nc2cc([C@H]3CC[C@@H](OC(=O)NC4(C)CC4)C3)[nH]n2)n1 [US20250074895, Compound 24]"
> 500,< 10,"COc1cnc(Nc2cc([C@H]3CC[C@@H](OC(=O)NC4(C)CC4)C3)[nH]n2)c(C)n1 [US20250074895, Compound 45]"
300,< 10,"COCc1cnc(Nc2cc([C@H]3CC[C@@H](OC(=O)NC4(C)CC4)C3)[nH]n2)cn1 [US20250074895, Compound 37]"
< 100,< 10,"CNc1nncc(Nc2cc([C@H]3CC[C@@H](OC(=O)NC4(C)CC4)C3)[nH]n2)n1 [US20250074895, Compound 23]"
